“And” between values parts separate entries of the source, which are not always exact repeats. Identical values can stand only once.
Tests used:
[1] = DNDI: Cytotoxicity against human MRC-5 lung fibroblast cells.; conditions: IC50
[2] = test system: Trypanosoma brucei brucei; assay: microbe, parasite or virus in culture; type: functional, organism-based, STIB 795
Description: DNDI: Inhibition of Human African Trypanosomiasis (HAT), STIB 795, in vitro

IC50 ([2]; Trypanosoma brucei, STIB 795) [µM] | IC50 [2] | SMILES | IC50 [1] [µM]
2.44 | – | NC1=C(Cl)C(=O)c2ccccc2C1=O | > 41.7
1.22 | – | Cc1ccccc1C(=O)Nc1ccccn1 | > 41.7
5.63 | – | Cc1ccc(CN(C)C)c(O)c(=O)c1 | > 20.8
≤ 2.64 | – | O=C(O)c1n[nH]c2c1CCCCCC2 | > 4.17
4.39 | – | Clc1ccnc2c1ccc1nn[nH]c12 | > 41.7
5.66 | – | CCOc1ccc(/C=N/NC(=N)N)cc1 | > 41.7
4.09 | – | Cc1cc(Cl)c2c(N)c(C)cc(C)c2n1 | > 41.7
1.42 | – | NC(N)=N/N=C1/C(=O)Nc2ccc(F)cc21 | > 41.7
3.21 | – | C=CCNc1nc(N)c(/C(N)=N\C#N)s1 | > 41.7
3.68 | – | Nc1ccc(Nc2coc3ccccc23)cc1 | > 20.8
1.21 | – | COc1cccc2c(N)c3c(cnn3C)nc12 | > 4.17
0.49 | – | CC(C)(C)c1ccc(/C=N/n2cnnc2)cc1 | > 41.7
5.52 | – | NC(=O)c1ccc(Nc2ccccc2)[nH]c1=O | 5.28
5.48 | 5.31 µM | N=c1n(Cc2ccccc2)c2ccccc2n1CC(O)c1ccc(Cl)cc1 (stereo not drawn) | > 20.8
3.73 | – | CC1=CC(C)(C)N=C(Nc2nc(C)c3cc(C)cc(C)c3n2)N1 | 5.93

More lines, now with the values behind:

SMILES | IC50 ([2]; Trypanosoma brucei, STIB 795) [µM] | IC50 [2] | IC50 [1] [µM]
CCOC(=O)/C=C\n1nnc2ccccc21 | 0.503 | – | > 41.7
Cc1[nH]c2ccccc2c1/C=C1\SC(=N)N(c2nccs2)C1=O | 2.15 | – | > 20.8
Nc1ccc2ccc3cccnc3c2n1 | 2.4 | – | > 4.17
Oc1nncc(N/N=C/c2ccccn2)n1 | 5.64 | – | > 20.8
CCOC(=O)c1ccc(CN2C(=O)C(=O)c3cc(OC(F)(F)F)ccc32)o1 | 4.03 | – | > 20.8
COc1ccc(N2C(=O)CN(Cc3sccc3C)C2=S)cc1Cl | 4.94 | – | > 41.7
O/N=C1C=C/C(=N\O)c2ncccc2/1 | 2.32 | – | 4.89
CCc1ccc(/C=N\n2cnnc2)cc1 | 0.647 | – | > 41.7
CC(=O)Cc1ccc2cccc(O)c2n1 | 4.56 | – | > 4.17
Nc1ccsc1/C=C/c1cccs1 | 5.05 | – | > 41.7
Cc1n[nH]c(C)c1/N=N/N1CCOCC1 | 0.7 | – | 3.61
OC12C[C@@H](C3CO[C@@H]1O3)n1nnnc1N2 | 4.84 | – | > 20.8
[O-][n+]1onc2cc(Cl)c3nonc3c21 | 5.23 | – | > 4.17
O=C(c1ccccc1)c1ccc(O)c(O)c1 | 1.2 | – | > 41.7
Oc1cccc2ccc(CNC3CC3)nc12 | 5.36 | – | > 20.8
Cc1nc2c(cc(O)c3ccccc32)s1 | 5.47 | – | > 41.7
Cc1cc(C)c2c(c1)CC(C)(C)C(=O)C2=O | 3.3 | – | > 41.7
NC1CCCc2c1[nH]c1ccc(Cl)cc21 (stereo not drawn) | – | 0.823 µM and 2.29 µM | > 20.8
O=C1Nc2ccccc2/C1=C/c1ccccn1 | 5.25 | 5.23 µM | > 20.8
CC1(C)CC(=S)C=C(N2CCCCC2)C1 | 1.95 | – | > 41.7
CCn1c2cccc(=O)c-2nc2ccccc21 | < 0.04 | – | > 20.8
CSC(=S)N/N=C(\C)c1ccncn1 | 5.02 | – | > 4.17
O=C(NO)c1sc2ccccc2c1Cl | 3.76 | – | > 41.7
CN1CCN(Nc2ccnc3cc4ccccc4cc23)CC1 | 0.357 | – | 3.36
Cc1cc(NC2CCCCC2)nc(NCc2ccccc2)n1 | 4.49 | – | > 41.7
CCCc1c(CC)c(=N)c2ccccc2n1C | 4.55 | – | > 41.7
CCN1C(C)=C(C)S/C1=C\c1ccc2cc(C)ccc2[n+]1C | 0.317 | – | > 4.17
CC(C)(C)C1CCc2nc(N)nc(N)c2C1 (stereo not drawn) | ≤ 3.36 | – | > 4.17
